What was measured:
DGKζ = DGKζ (Homo sapiens (Human), UniProt Q13574); assay: Biochemical DGK IC50 assay, DGKζ ADP-Glo assay; conditions: 0.5 nM enzyme, 140 μM ATP, 80 μM DAG; read-out: DGKζ ADP-Glo assay IC50
In short: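 ADP formation measured by ADP-Glo luminescence, with test compounds at final 1.55–10000 nM or 23.3–150000 nM. Enzyme: purified full-length human DGKζ from Sf9 insect cells; substrate: DAG/PS micelles in 25 mM HEPES pH 7.0, 0.5 mM EDTA, octyl glucoside.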

DGKα = DGKα (Homo sapiens (Human), UniProt P23743); assay: Biochemical DGK IC50 assay, DGKα ADP-Glo assay; conditions: 7.5 nM enzyme, 140 μM ATP, 80 μM DAG
In short: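 Compounds at final 1.55˜10000 nM or 23.3˜150000 nM were tested against full-length DGKα. Substrate was lipid micelles of DAG and PS resuspended in 25 mM HEPES pH 7.0 with 0.5 mM EDTA and 160 mM octyl β-D-glucopyranoside. ADP formed was detected by ADP-Glo.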

Chain of DGKα (P23743 whole entry): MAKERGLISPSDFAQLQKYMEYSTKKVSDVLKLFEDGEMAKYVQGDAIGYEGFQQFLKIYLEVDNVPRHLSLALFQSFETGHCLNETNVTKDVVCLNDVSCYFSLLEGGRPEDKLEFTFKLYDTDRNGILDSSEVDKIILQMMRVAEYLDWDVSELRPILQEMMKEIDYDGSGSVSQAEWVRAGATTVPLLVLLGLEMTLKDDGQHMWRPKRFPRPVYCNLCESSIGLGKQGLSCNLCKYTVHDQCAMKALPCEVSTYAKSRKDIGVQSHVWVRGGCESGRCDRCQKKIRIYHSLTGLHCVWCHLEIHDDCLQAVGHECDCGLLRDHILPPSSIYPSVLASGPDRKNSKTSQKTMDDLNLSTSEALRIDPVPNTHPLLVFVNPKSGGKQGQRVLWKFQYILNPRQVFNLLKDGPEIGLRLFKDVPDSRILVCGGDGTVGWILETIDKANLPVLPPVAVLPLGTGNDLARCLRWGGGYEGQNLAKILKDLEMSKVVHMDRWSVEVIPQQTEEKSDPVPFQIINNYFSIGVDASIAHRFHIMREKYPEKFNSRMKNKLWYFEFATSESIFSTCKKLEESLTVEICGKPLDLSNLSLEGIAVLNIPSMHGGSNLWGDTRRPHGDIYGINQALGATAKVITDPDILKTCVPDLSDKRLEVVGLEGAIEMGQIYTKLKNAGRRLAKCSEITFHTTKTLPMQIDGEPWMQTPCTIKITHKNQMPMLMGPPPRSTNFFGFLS
Chain of DGKζ (Q13574 other isoform, or with tags, fused parts or gaps): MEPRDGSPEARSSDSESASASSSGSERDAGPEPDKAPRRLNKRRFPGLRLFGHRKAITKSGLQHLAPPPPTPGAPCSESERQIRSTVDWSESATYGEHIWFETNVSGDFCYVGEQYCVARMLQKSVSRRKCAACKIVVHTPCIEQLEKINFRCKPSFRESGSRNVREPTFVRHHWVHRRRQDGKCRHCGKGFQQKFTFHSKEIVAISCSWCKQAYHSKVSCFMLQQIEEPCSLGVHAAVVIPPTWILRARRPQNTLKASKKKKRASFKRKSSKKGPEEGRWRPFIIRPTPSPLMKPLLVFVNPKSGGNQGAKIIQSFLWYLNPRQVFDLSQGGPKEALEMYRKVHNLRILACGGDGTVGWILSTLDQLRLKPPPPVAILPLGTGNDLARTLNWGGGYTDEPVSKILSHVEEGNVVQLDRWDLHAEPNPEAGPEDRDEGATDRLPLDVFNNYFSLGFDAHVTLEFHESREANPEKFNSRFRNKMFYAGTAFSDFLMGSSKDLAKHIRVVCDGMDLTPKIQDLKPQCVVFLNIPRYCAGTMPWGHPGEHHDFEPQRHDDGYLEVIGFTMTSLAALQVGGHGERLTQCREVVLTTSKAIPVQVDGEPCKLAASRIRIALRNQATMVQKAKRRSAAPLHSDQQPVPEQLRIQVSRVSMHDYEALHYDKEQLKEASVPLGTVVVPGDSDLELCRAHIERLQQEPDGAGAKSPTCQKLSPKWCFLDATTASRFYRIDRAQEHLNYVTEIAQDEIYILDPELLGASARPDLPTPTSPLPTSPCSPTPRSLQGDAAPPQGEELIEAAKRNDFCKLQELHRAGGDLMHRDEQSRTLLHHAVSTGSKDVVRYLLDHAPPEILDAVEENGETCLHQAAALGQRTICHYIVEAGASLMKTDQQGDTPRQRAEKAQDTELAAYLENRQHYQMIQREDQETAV

Structure (SMILES): CC[C@H]1CN(C(C)c2ccc(F)cc2C(F)(F)F)[C@H](CC)CN1c1cc(=O)n(C)c2cn(CC#N)nc12 (single isomer, unassigned) [Compound A196a]
- IC50 (DGKζ): 1.35 µM
- IC50 (DGKα): > 10 µM

Structure (SMILES): CC[C@H]1CN(C(C)c2ccc(F)cc2C)[C@H](CC)CN1c1cc(=O)n(C)c2cn(CC#N)nc12 (stereo partly drawn) [Compound A84, 2-(7-((2S,5R)-2,5-diethyl-4-(1-(4-fluoro-2-methylphenyl)ethyl)piperazin-1-yl)-4-methyl-5-oxo-4,5-dihydro-2H-pyrazolo[4,3-b]pyridin-2-yl)acetonitrile]
- IC50 (DGKζ): 0.128 µM
- IC50 (DGKα): 2.89 µM

Structure (SMILES): CCC1CN(c2c(Br)c(=O)n(C)c3cn(CC#N)nc23)CCN1[C@@H](C)c1ccc2nccnc2c1 (stereo partly drawn) [Compound A179a, 2-(6-bromo-7-((2S,5R)-3-ethyl-4-(1-(quinoxalin-6-yl)ethyl)piperazin-1-yl)-4-methyl-5-oxo-4,5-dihydro-2H-pyrazolo[4,3-b]pyridin-2-yl)acetonitrile]
- IC50 (DGKζ): 7.88 µM
- IC50 (DGKα): > 10 µM

Structure (SMILES): CC(c1ccc(F)cc1C(C)(F)F)N1C[C@H](C)N(c2cc(=O)n(C)c3cn(CC#N)nc23)C[C@H]1C (stereo partly drawn) [Compound A254, 2-(7-((2S,5R)-4-(1-(2-(1,1-difluoroethyl)-4-fluorophenyl)ethyl)-2,5-dimethylpiperazin-1-yl)-4-methyl-5-oxo-4,5-dihydro-2H-pyrazolo[4,3-b]pyridin-2-yl)acetonitrile]
- IC50 (DGKζ): 0.307 µM
- IC50 (DGKα): > 10 µM

Structure (SMILES): CC[C@H]1CN(C(C)c2ccc(C)c(OC)n2)[C@H](CC)CN1c1cc(=O)n(C)c2cn(CC#N)nc12 (stereo partly shown) [Compound A364]
- IC50 (DGKζ): 0.288 µM
- IC50 (DGKα): 2.52 µM

Structure (SMILES): CC[C@H]1CN(C(C)c2ccc3c(n2)OCCO3)[C@H](CC)CN1c1cc(=O)n(C)c2cn(CC#N)nc12 (stereo partly drawn) [Compound A159, 2-(7-((2S,5R)-4-(1-(2,3-dihydro-[1,4]dioxino[2,3-b]pyridin-6-yl)ethyl)-2,5-diethylpiperazin-1-yl)-4-methyl-5-oxo-4,5-dihydro-2H-pyrazolo[4,3-b]pyridin-2-yl)acetonitrile]
- IC50 (DGKζ): 0.03 µM
- IC50 (DGKα): 0.19 µM

Structure (SMILES): CC(c1ccc2nc(O)cnc2c1)N1C[C@H](C)N(c2cc(=O)n(C)c3cn(CC#N)nc23)C[C@H]1C (stereo partly drawn) [Compound A284, 2-(7-((2S,5R)-4-(1-(2-hydroxyquinoxalin-6-yl)ethyl)-2,5-dimethylpiperazin-1-yl)-4-methyl-5-oxo-4,5-dihydro-2H-pyrazolo[4,3-b]pyridin-2-yl)acetonitrile]
- IC50 (DGKζ): > 10 µM
- IC50 (DGKα): 6.48 µM

Structure (SMILES): CCOc1cc(F)ccc1C(C)N1C[C@H](CC)N(c2cc(=O)n(C)c3cn(CC#N)nc23)C[C@H]1CC (stereo partly shown) [Compound A141]
- IC50 (DGKζ): 0.696 µM
- IC50 (DGKα): 6.63 µM

Structure (SMILES): CC[C@H]1CN(C(C)c2ccc(C(F)(F)F)cc2OC)[C@H](CC)CN1c1cc(=O)n(C)c2cn(CC#N)nc12 (stereo partly shown) [Compound A157]
- IC50 (DGKζ): 1.03 µM
- IC50 (DGKα): 2.99 µM

Structure (SMILES): C[C@@H]1CN(c2cc(=O)n(C)c3cn(CC#N)nc23)[C@@H](C)CN1C(C)(C)c1ccc(F)cc1 [Compound A297, 2-(7-((2S,5R)-4-(2-(4-fluorophenyl)propan-2-yl)-2,5-dimethylpiperazin-1-yl)-4-methyl-5-oxo-4,5-dihydro-2H-pyrazolo[4,3-b]pyridin-2-yl)acetonitrile]
- IC50 (DGKζ): > 10 µM
- IC50 (DGKα): 8.18 µM

Structure (SMILES): CC[C@H]1CN(C(C)c2ccc(Cl)cn2)[C@H](CC)CN1c1cc(=O)n(C)c2cn(CC#N)nc12 (single isomer, unassigned) [Compound A360b]
- IC50 (DGKζ): 0.134 µM
- IC50 (DGKα): 0.0027 µM

Structure (SMILES): CC[C@H]1CN(C(C)c2ccc(OC(C)C)nc2)[C@H](CC)CN1c1cc(=O)n(C)c2cn(CC#N)nc12 (stereo partly shown) [Compound A81]
- IC50 (DGKζ): 0.06 µM
- IC50 (DGKα): 0.461 µM

Structure (SMILES): CC[C@H]1CN(C(C)c2c(OC)cc(F)cc2OC)[C@H](CC)CN1c1cc(=O)n(C)c2cn(CC#N)nc12 (stereo partly shown) [Compound A94]
- IC50 (DGKζ): 0.098 µM
- IC50 (DGKα): 9.13 µM

Structure (SMILES): CC(c1ccc2ncc(CO)nc2c1)N1C[C@H](C)N(c2cc(=O)n(C)c3cn(CC#N)nc23)C[C@H]1C (stereo partly drawn) [Compound A309, 2-(7-((2S,5R)-4-(1-(3-(hydroxymethyl)quinoxalin-6-yl)ethyl)-2,5-dimethylpiperazin-1-yl)-4-methyl-5-oxo-4,5-dihydro-2H-pyrazolo[4,3-b]pyridin-2-yl)acetonitrile]
- IC50 (DGKζ): 0.88 µM
- IC50 (DGKα): 108 µM

Structure (SMILES): CC[C@H]1CN(C(C)c2cccc(CN(C)C)c2)[C@H](CC)CN1c1cc(=O)n(C)c2cn(CC#N)nc12 (stereo partly shown) [Compound A151]
- IC50 (DGKζ): 2.04 µM
- IC50 (DGKα): > 10 µM

Structure (SMILES): CC[C@H]1CN(C(C)c2ccc3nccnc3c2)[C@H](CC)CN1c1cc(=O)n(CC(F)(F)F)c2cn(CC#N)nc12 (stereo partly drawn) [Compound A123, 2-(7-((2S,5R)-2,5-diethyl-4-(1-(quinoxalin-6-yl)ethyl)piperazin-1-yl)-5-oxo-4-(2,2,2-trifluoroethyl)-4,5-dihydro-2H-pyrazolo[4,3-b]pyridin-2-yl)acetonitrile]
- IC50 (DGKζ): 1.74 µM
- IC50 (DGKα): 6.03 µM

Structure (SMILES): CC(c1ccc2nccnc2c1)N1C[C@H](C)N(c2cc(=O)n(C)c3cn(CC#N)nc23)C[C@H]1C (mixture of isomers) [Compound A2, 2-(7-((2S,5R)-2,5-dimethyl-4-(1-(quinoxalin-6-yl)ethyl)piperazin-1-yl)-4-methyl-5-oxo-4,5-dihydro-2H-pyrazolo[4,3-b]pyridin-2-yl)acetonitrile]
- IC50 (DGKζ): 0.071 µM
- IC50 (DGKα): 7.7 µM

Structure (SMILES): C=CCCn1cc2c(n1)c(N1C[C@@H](C)N(C(C)c3ccc4nccnc4c3)C[C@@H]1C)cc(=O)n2C (single isomer, unassigned) [Compound A300, 2-(but-3-en-1-yl)-7-((2S,5R)-2,5-dimethyl-4-((S)-1-(quinoxalin-6-yl)ethyl)piperazin-1-yl)-4-methyl-2,4-dihydro-5H-pyrazolo[4,3-b]pyridin-5-one, or 2-(but-3-en-1-yl)-7-((2S,5R)-2,5-dimethyl-4-((R)-1-(quinoxalin-6-yl)ethyl)piperazin-1-yl)-4-methyl-2,4-dihydro-5H-pyrazolo[4,3-b]pyridin-5-one]
- IC50 (DGKζ): 0.524 µM
- IC50 (DGKα): 54 µM

Structure (SMILES): CC[C@H]1CN(C(C)c2cc3ccccn3n2)[C@H](CC)CN1c1cc(=O)n(C)c2cn(CC#N)nc12 (stereo partly shown) [Compound A389]
- IC50 (DGKζ): 0.201 µM
- IC50 (DGKα): 0.043 µM

Structure (SMILES): CC[C@H]1CN(C(C)c2cc(C)ccc2C(F)(F)F)[C@H](CC)CN1c1cc(=O)n(C)c2cn(CC#N)nc12 (stereo partly shown) [Compound A114]
- IC50 (DGKζ): 6.6 µM
- IC50 (DGKα): > 10 µM

Structure (SMILES): CC[C@H]1CN(C(C)c2ccc3ccccc3n2)[C@H](CC)CN1c1cc(=O)n(C)c2cn(CC#N)nc12 (stereo partly shown) [Compound A57]
- IC50 (DGKζ): 0.05 µM
- IC50 (DGKα): 0.114 µM

Structure (SMILES): CC[C@@H]1CN(c2c(C#N)c(=O)n(C)c3cn(CC#N)nc23)[C@@H](C)CN1C(C)c1ccc2nccnc2c1 (stereo partly drawn) [Compound A156, 2-(cyanomethyl)-7-((2S,5R)-5-ethyl-2-methyl-4-(1-(quinoxalin-6-yl)ethyl)piperazin-1-yl)-4-methyl-5-oxo-4,5-dihydro-2H-pyrazolo[4,3-b]pyridine-6-carbonitrile]
- IC50 (DGKζ): 0.018 µM
- IC50 (DGKα): 1.75 µM

Structure (SMILES): CC#CCn1cc2c(n1)c(N1C[C@@H](CC)N(C(C)c3ccc4nccnc4c3)C[C@@H]1CC)cc(=O)n2C (stereo partly drawn) [Compound A23, 2-(but-2-yn-1-yl)-7-((2S,5R)-2,5-diethyl-4-(1-(quinoxalin-6-yl)ethyl)piperazin-1-yl)-4-methyl-2,4-dihydro-5H-pyrazolo[4,3-b]pyridin-5-one]
- IC50 (DGKζ): 0.057 µM
- IC50 (DGKα): 0.12 µM

Structure (SMILES): CC(c1ccc2nccnc2c1)N1C[C@H](C)N(c2c(F)c(=O)n(C)c3cn(CC#N)nc23)C[C@H]1C (stereo partly drawn) [Compound A168, 2-(7-((2S,5R)-2,5-dimethyl-4-(1-(quinoxalin-6-yl)ethyl)piperazin-1-yl)-6-fluoro-4-methyl-5-oxo-4,5-dihydro-2H-pyrazolo[4,3-b]pyridin-2-yl)acetonitrile]
- IC50 (DGKζ): 0.028 µM
- IC50 (DGKα): 6.08 µM

Structure (SMILES): CC[C@H]1CN(C(C)c2ccc3cccnc3c2)[C@H](CC)CN1c1cc(=O)n(C)c2cn(CC#N)nc12 (stereo partly shown) [Compound A61]
- IC50 (DGKζ): 0.0086 µM
- IC50 (DGKα): 0.177 µM

Structure (SMILES): C[C@H](c1ccc2nccnc2c1)N1CC2CCC1CN2c1cc(=O)n(C)c2cn(CC#N)nc12 (stereo partly shown) [Compound A125b]
- IC50 (DGKζ): 5.27 µM
- IC50 (DGKα): > 10 µM

Structure (SMILES): CC[C@H]1CN(C(C)c2ccc(F)cc2OCCOC)[C@H](CC)CN1c1cc(=O)n(C)c2cn(CC#N)nc12 (stereo partly shown) [Compound A85]
- IC50 (DGKζ): 1.18 µM
- IC50 (DGKα): 5.28 µM

Structure (SMILES): CC[C@H]1CN(C(C)c2ccc(F)cn2)[C@H](CC)CN1c1cc(=O)n(C)c2cn(CC#N)nc12 (stereo partly shown) [Compound A74]
- IC50 (DGKζ): 0.83 µM
- IC50 (DGKα): 0.0038 µM

Structure (SMILES): CC[C@@H]1CN(c2cc(=O)n(C)c3cn(CC#N)nc23)[C@@H](C)CN1C(C)c1ccc2nccnc2c1 (mixture of isomers) [Compound A97, 2-(7-((2S,5R)-5-ethyl-2-methyl-4-(1-(quinoxalin-6-yl)ethyl)piperazin-1-yl)-4-methyl-5-oxo-4,5-dihydro-2H-pyrazolo[4,3-b]pyridin-2-yl)acetonitrile]
- IC50 (DGKζ): 0.001 µM
- IC50 (DGKα): 0.999 µM

Structure (SMILES): Cc1nc2ccc(C(C)N3C[C@H](C)N(c4cc(=O)n(C)c5cn(CC#N)nc45)C[C@H]3C)cc2nc1C (stereo partly drawn) [Compound A294, 2-(7-((2S,5R)-4-(1-(2,3-dimethylquinoxalin-6-yl)ethyl)-2,5-dimethylpiperazin-1-yl)-4-methyl-5-oxo-4,5-dihydro-2H-pyrazolo[4,3-b]pyridin-2-yl)acetonitrile]
- IC50 (DGKζ): 3.86 µM
- IC50 (DGKα): 69.6 µM

Structure (SMILES): CCc1c(C(C)N2C[C@H](CC)N(c3cc(=O)n(C)c4cn(CC#N)nc34)C[C@H]2CC)cnn1C (single isomer, unassigned) [Compound A213b]
- IC50 (DGKζ): > 10 µM
- IC50 (DGKα): > 10 µM

Structure (SMILES): CC[C@H]1CN(C(C)c2ccncc2)[C@H](CC)CN1c1cc(=O)n(C)c2cn(CC#N)nc12 (stereo partly shown) [Compound A86]
- IC50 (DGKζ): 1.94 µM
- IC50 (DGKα): 0.022 µM

Source: patent US20240270751A1, “Pyrazolopyridinone Compounds” (BeiGene Ltd., priority 2021, published 2024)
